From paper PMC7339578, “Multiple circulating alkaloids and saponins from intravenous Kang-Ai injection inhibit human cytochrome P450 and UDP-glucuronosyltransferase isozymes: potential drug–drug interactions” (Chinese Medicine, 2020)

Assays:
[1] = Urinary (renal) excretion in rats after a 30-min infusion of Kang-Ai injection; type: in vivo, Sprague–Dawley rats; conditions: Kang-Ai injection 6 mL/kg iv; for CL renal: male, Sprague-Dawley, urine and plasma, rat, read-out: CLR (renal excretory clearance) (converted); for fe-U,0–12h (fraction of dose excreted into urine): rat urine 0–12 h
Method in brief: (§1)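 Urine collected in metabolic cages at 0–4, 4–8, 8–12 h and bile at 0–3, 3–6, 6–9, 9–12 h after infusion start, weighed and frozen at −80 °C. Non-compartmental analysis; CLR and CLB as cumulative urinary or biliary amount divided by plasma AUC0-∞, fe-U and fe-B as cumulative amount/dose; mean ± SD (n = 3).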

[2] = Biliary (hepatobiliary) excretion in rats after a 30-min infusion of Kang-Ai injection; type: in vivo, Sprague–Dawley rats; conditions: rat bile 0–12 h; Kang-Ai injection 6 mL/kg iv
Method in brief: as §1

[3] = molecular target: T1, CYP2B6 (Homo sapiens, UniProt P20813); experiment: Inhibition of recombinant CYP2B6 (probe bupropion); type: in vitro ADME; conditions: recombinant isozyme; mean ± SD of triplicate; unit not given (IC50 classes in μM); read-out: IC50 towards CYP2B6
T1 sequence (P20813 1-491): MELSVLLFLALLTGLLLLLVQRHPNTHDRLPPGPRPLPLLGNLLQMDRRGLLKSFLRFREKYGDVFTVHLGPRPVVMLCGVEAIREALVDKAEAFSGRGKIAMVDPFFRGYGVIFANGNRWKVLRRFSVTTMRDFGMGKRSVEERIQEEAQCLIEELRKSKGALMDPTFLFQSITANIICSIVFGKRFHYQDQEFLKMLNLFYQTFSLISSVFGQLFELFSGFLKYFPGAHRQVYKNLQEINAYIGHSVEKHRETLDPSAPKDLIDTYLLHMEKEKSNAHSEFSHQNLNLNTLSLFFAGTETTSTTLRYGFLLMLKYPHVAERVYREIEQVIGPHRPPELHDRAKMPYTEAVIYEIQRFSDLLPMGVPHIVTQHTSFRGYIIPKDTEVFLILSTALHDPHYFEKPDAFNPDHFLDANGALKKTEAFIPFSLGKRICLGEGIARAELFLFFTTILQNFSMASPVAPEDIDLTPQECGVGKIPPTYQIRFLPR
Protocol: (§2) In this study, phenacetin (100 μM), coumarin (100 μM), bupropion (100 μM), paclitaxel (60 μM), tolbutamide (200 μM), mephenytoin (100 μM), chlorzoxazone (200 μM) and nifedipine (40 μM) have been used as the probe substrates for CYP1A2, 2A6, 2B6, 2C8, 2C9, 2C19, 2E1 and 3A4, respectively.

[4] = molecular target: CYP2C19 (Homo sapiens, UniProt P33261); experiment: Inhibition of recombinant CYP2C19 (probe mephenytoin); type: in vitro ADME; conditions: recombinant isozyme; mean ± SD of triplicate; unit not given (IC50 classes in μM); read-out: IC50 towards CYP2C19
Chain of CYP2C19 (P33261 whole entry): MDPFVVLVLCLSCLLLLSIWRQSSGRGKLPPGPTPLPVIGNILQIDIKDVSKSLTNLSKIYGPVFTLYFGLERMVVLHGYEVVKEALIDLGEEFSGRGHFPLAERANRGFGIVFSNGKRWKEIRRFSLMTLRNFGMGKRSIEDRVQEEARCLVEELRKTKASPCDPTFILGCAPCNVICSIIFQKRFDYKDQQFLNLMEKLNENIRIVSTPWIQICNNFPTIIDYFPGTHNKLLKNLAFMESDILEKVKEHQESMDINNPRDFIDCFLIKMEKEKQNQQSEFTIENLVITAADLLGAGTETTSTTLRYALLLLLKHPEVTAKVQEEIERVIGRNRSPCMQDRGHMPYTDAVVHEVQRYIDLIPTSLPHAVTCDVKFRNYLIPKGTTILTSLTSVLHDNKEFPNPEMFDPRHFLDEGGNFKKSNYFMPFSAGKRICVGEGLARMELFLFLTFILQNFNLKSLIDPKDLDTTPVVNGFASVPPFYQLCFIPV
Protocol: as §2

[5] = molecular target: CYP2E1 (Homo sapiens, UniProt P05181); experiment: Inhibition of recombinant CYP2E1 (probe chlorzoxazone)
Chain of CYP2E1 (P05181 whole entry): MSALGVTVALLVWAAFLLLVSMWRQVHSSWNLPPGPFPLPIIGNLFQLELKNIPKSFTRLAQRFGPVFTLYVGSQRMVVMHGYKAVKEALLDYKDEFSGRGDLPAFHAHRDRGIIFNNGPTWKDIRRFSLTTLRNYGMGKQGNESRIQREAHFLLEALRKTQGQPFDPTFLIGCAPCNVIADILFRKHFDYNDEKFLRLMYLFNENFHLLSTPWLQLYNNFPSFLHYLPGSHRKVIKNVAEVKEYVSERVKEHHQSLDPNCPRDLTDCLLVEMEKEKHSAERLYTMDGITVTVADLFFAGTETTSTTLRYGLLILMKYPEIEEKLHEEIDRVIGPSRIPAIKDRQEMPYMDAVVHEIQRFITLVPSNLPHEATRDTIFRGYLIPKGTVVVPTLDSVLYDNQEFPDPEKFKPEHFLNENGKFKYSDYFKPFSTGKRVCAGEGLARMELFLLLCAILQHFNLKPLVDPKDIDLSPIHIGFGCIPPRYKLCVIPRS
Protocol: Phase I incubation system (100 μL) contained Tris–HCl buffer (50 mM, pH = 7.4), MgCl2 (5 mM), each CYP isozyme, specific substrates, circulating compounds and NADPH (1 mM) as prescribed previously. After incubation (37 °C, 60 min), the reaction was terminated by ice-cold acetonitrile (100 μL), following by centrifugation at 13,800g for 10 min. The supernatant (8 μL) was acquired for ultra-high-performance liquid chromatography (UHPLC) system (Waters, Manchester, UK) analysis.
After optimization of incubation conditions (Additional file 1: Fig. S1), the substrates were incubated with each CYP isozyme at different protein concentrations (0.05 mg/mL for CYP1A2 and 3A4; 0.1 mg/mL for CYP2A6, 2B6, 2C8, 2C9, 2C19 and 2E1) in the absence (control) and presence of different mixture or herbal compounds (Kang-Ai injection and samples that Kang-Ai injection was diluted 10 times; 1, 10, and 100 μM for matrine and oxymatrine; 0.1, 1, 10 and 100 μM for astragalosides and ginsenosides).
The half-inhibition concentration (IC50) values were determined by non-linear regression analysis. […] The inhibition mechanism towards corresponding CYP and UGT isoforms were further explored.
The inhibition constant (Ki) values were obtained by multiple concentrations of substrates in the absence or presence of multiple concentrations of herbal compounds as described previously. […] (1)–(3), respectively. The model with the smallest Akaike information criterion (AIC) and Schwartz information criterion (SC) values was considered as the best model, following the obtained appropriate Ki values. Model fitting and parameter estimation were performed using Graphpad Prism V5 software (SanDiego, CA).

[6] = molecular target: CYP3A4 (Homo sapiens, UniProt P08684); experiment: Inhibition of recombinant CYP3A4 (probe nifedipine); type: in vitro ADME; conditions: recombinant isozyme; mean ± SD of triplicate; unit not given (IC50 classes in μM); read-out: IC50 towards CYP3A4
Chain of CYP3A4 (P08684 whole entry): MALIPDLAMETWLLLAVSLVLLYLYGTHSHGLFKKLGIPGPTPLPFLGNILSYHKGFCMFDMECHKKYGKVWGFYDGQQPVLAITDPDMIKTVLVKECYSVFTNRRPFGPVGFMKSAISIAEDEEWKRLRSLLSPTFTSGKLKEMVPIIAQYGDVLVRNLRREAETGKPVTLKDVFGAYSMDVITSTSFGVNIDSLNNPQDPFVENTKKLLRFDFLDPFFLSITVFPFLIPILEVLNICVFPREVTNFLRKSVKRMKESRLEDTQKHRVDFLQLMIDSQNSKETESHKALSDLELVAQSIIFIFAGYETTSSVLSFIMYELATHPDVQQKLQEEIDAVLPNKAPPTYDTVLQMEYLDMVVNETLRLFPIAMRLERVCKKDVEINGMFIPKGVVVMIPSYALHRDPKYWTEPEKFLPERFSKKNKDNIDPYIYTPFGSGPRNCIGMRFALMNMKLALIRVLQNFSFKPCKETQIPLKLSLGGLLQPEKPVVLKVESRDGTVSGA
Protocol: as §2

[7] = Stability tests of analytes in rat plasma QC samples; type: in vitro ADME; conditions: rat plasma
Protocol: […] The dilution integrity was investigated by analyzing six replicate samples with each analyte, and each analyte were diluted 10-fold with blank rat matrix. Furthermore, the diluted samples were analyzed using freshly prepared calibration curve to calculate RE and RSD, which should be no more than ± 15% as criterion.

SMILES: CC(C)=CCC[C@](C)(O)[C@H]1CC[C@]2(C)[C@@H]1[C@H](O)C[C@@H]1[C@@]3(C)CC[C@H](O)C(C)(C)[C@@H]3[C@@H](O[C@@H]3O[C@H](CO)[C@@H](O)[C@H](O)[C@H]3O[C@@H]3O[C@H](CO)[C@@H](O)[C@H](O)[C@H]3O)C[C@]12C [Compound C7, Ginsenoside Rf]
- CL renal [1]: 0.322 mL/min
- fe-U,0–12h (fraction of dose excreted into urine) [1]: 17.77 ± 3.90%
- fe-B,0–12h (fraction of dose excreted into bile) [2]: 13.12 ± 1.68%
- IC50 [3]: > 100 µM
- IC50 [4]: > 100 µM
- IC50 [5]: > 100 µM
- IC50 [6]: > 100 µM
- At -80 °C for 48 h, Mean±SD ([7]; nominal conc. 20 nM): 21.60 ± 0.37 nM
- At -80 °C for 48 h, RE ([7]; nominal conc. 20 nM): 9.41%
- Extracted samples at 8 °C for 18 h, Mean±SD ([7]; nominal conc. 20 nM): 19.73 ± 2.64 nM
- Extracted samples at 8 °C for 18 h, RE ([7]; nominal conc. 20 nM): 13.56%
- Short-term stability at room temperature for 6 h, Mean±SD ([7]; nominal conc. 20 nM): 20.44 ± 2.11 nM
- Short-term stability at room temperature for 6 h, RE ([7]; nominal conc. 20 nM): 11.15%
- Three freeze-thaw cycles (-80 °C ↔ 23 °C), Mean±SD ([7]; nominal conc. 20 nM): 22.07 ± 0.56 nM
- Three freeze-thaw cycles (-80 °C ↔ 23 °C), RE ([7]; nominal conc. 20 nM): 13.46%
- At -80 °C for 48 h, Mean±SD ([7]; nominal conc. 100 nM): 100.58 ± 11.11 nM
- At -80 °C for 48 h, RE ([7]; nominal conc. 100 nM): 13.37%
- Extracted samples at 8 °C for 18 h, Mean±SD ([7]; nominal conc. 100 nM): 93.83 ± 2.15 nM
- Extracted samples at 8 °C for 18 h, RE ([7]; nominal conc. 100 nM): -8.56%
- Short-term stability at room temperature for 6 h, Mean±SD ([7]; nominal conc. 100 nM): 96.37 ± 9.64 nM
- Short-term stability at room temperature for 6 h, RE ([7]; nominal conc. 100 nM): -10.30%
- Three freeze-thaw cycles (-80 °C ↔ 23 °C), Mean±SD ([7]; nominal conc. 100 nM): 101.34 ± 13.26 nM
- Three freeze-thaw cycles (-80 °C ↔ 23 °C), RE ([7]; nominal conc. 100 nM): -13.01%
- At -80 °C for 48 h, Mean±SD ([7]; nominal conc. 400 nM): 428.42 ± 28.06 nM
- At -80 °C for 48 h, RE ([7]; nominal conc. 400 nM): 14.40%
- Extracted samples at 8 °C for 18 h, Mean±SD ([7]; nominal conc. 400 nM): 392.21 ± 39.26 nM
- Extracted samples at 8 °C for 18 h, RE ([7]; nominal conc. 400 nM): -12.43%
- Short-term stability at room temperature for 6 h, Mean±SD ([7]; nominal conc. 400 nM): 357.16 ± 4.75 nM
- Short-term stability at room temperature for 6 h, RE ([7]; nominal conc. 400 nM): -11.69%
- Three freeze-thaw cycles (-80 °C ↔ 23 °C), Mean±SD ([7]; nominal conc. 400 nM): 398.07 ± 39.06 nM
- Three freeze-thaw cycles (-80 °C ↔ 23 °C), RE ([7]; nominal conc. 400 nM): -10.52%

SMILES: CC(C)=CCC[C@](C)(O[C@@H]1O[C@H](CO)[C@@H](O)[C@H](O)[C@H]1O)[C@H]1CC[C@]2(C)[C@@H]1[C@H](O)C[C@@H]1[C@@]3(C)CC[C@H](O)C(C)(C)[C@@H]3[C@@H](O[C@@H]3O[C@H](CO)[C@@H](O)[C@H](O)[C@H]3O)C[C@]12C [Compound C6, Ginsenoside Rg1]
- CL renal [1]: 1.04 mL/min
- fe-U,0–12h (fraction of dose excreted into urine) [1]: 39.79 ± 5.88%
- fraction of dose excreted unchanged via renal plus hepatobiliary excretion (sum of fe-U and fe-B) ([1]; rat urine + bile, 0–12 h): ~60%
- fe-B,0–12h (fraction of dose excreted into bile) [2]: 20.71 ± 3.62%
- IC50 [3]: > 100 µM
- IC50 [4]: > 100 µM
- IC50 [5]: > 100 µM
- IC50 [6]: > 100 µM
- At -80 °C for 48 h, Mean±SD ([7]; nominal conc. 40 nM): 37.29 ± 1.37 nM
- At -80 °C for 48 h, RE ([7]; nominal conc. 40 nM): -10.20%
- Extracted samples at 8 °C for 18 h, Mean±SD ([7]; nominal conc. 40 nM): 35.69 ± 0.56 nM
- Extracted samples at 8 °C for 18 h, RE ([7]; nominal conc. 40 nM): -12.18%
- Short-term stability at room temperature for 6 h, Mean±SD ([7]; nominal conc. 40 nM): 38.60 ± 1.14 nM
- Short-term stability at room temperature for 6 h, RE ([7]; nominal conc. 40 nM): -6.74%
- Three freeze-thaw cycles (-80 °C ↔ 23 °C), Mean±SD ([7]; nominal conc. 40 nM): 39.64 ± 2.41 nM
- Three freeze-thaw cycles (-80 °C ↔ 23 °C), RE ([7]; nominal conc. 40 nM): -7.72%
- At -80 °C for 48 h, Mean±SD ([7]; nominal conc. 200 nM): 209.85 ± 12.74 nM
- At -80 °C for 48 h, RE ([7]; nominal conc. 200 nM): 10.34%
- Extracted samples at 8 °C for 18 h, Mean±SD ([7]; nominal conc. 200 nM): 197.72 ± 17.37 nM
- Extracted samples at 8 °C for 18 h, RE ([7]; nominal conc. 200 nM): 8.81%
- Short-term stability at room temperature for 6 h, Mean±SD ([7]; nominal conc. 200 nM): 204.22 ± 5.64 nM
- Short-term stability at room temperature for 6 h, RE ([7]; nominal conc. 200 nM): 4.83%
- Three freeze-thaw cycles (-80 °C ↔ 23 °C), Mean±SD ([7]; nominal conc. 200 nM): 189.03 ± 9.20 nM
- Three freeze-thaw cycles (-80 °C ↔ 23 °C), RE ([7]; nominal conc. 200 nM): -10.01%
- At -80 °C for 48 h, Mean±SD ([7]; nominal conc. 800 nM): 800.01 ± 77.30 nM
- At -80 °C for 48 h, RE ([7]; nominal conc. 800 nM): 11.14%
- Extracted samples at 8 °C for 18 h, Mean±SD ([7]; nominal conc. 800 nM): 826.40 ± 51.24 nM
- Extracted samples at 8 °C for 18 h, RE ([7]; nominal conc. 800 nM): 10.42%
- Short-term stability at room temperature for 6 h, Mean±SD ([7]; nominal conc. 800 nM): 737.30 ± 34.89 nM
- Short-term stability at room temperature for 6 h, RE ([7]; nominal conc. 800 nM): -11.11%
- Three freeze-thaw cycles (-80 °C ↔ 23 °C), Mean±SD ([7]; nominal conc. 800 nM): 739.78 ± 39.17 nM
- Three freeze-thaw cycles (-80 °C ↔ 23 °C), RE ([7]; nominal conc. 800 nM): -11.08%
